This note sets out measurements from PubChem BioAssay AID1259407 (Chemical Carcinogenesis Research Information System (CCRIS), 2018).

Activity calls are given as the source filed them. The rule behind the calls is not given here.

The data set deals with CCRIS mutagenicity, Ames/micronucleus/aberration tests. Nature of the data set: CCRIS mutagenicity studies.
Where [1] appears, read: Test System: AMES SALMONELLA TYPHIMURIUM, Strain/Indicator: TA98, Metabolic Activation: NONE, Method: STANDARD PLATE.
The mark [2] stands for this setting: Test System: AMES SALMONELLA TYPHIMURIUM, Strain/Indicator: TA100, Metabolic Activation: NONE, Method: STANDARD PLATE.
The mark [3] stands for this setting: Test System: AMES SALMONELLA TYPHIMURIUM, Strain/Indicator: TA1535, Metabolic Activation: NONE, Method: STANDARD PLATE.
Setting [4] is: Test System: AMES SALMONELLA TYPHIMURIUM, Strain/Indicator: TA1537, Metabolic Activation: NONE, Method: STANDARD PLATE.
Setting [5] is: Test System: AMES SALMONELLA TYPHIMURIUM, Strain/Indicator: TA1538, Metabolic Activation: NONE, Method: STANDARD PLATE.
Where [6] appears, read: Test System: MOUSE LYMPHOMA, Strain/Indicator: L5178Y (TK+/TK-), Metabolic Activation: NONE, Method: SUSPENSION/PLATE.
Setting [7] is: Test System: AMES SALMONELLA TYPHIMURIUM, Strain/Indicator: TA98, Metabolic Activation: RAT, LIVER, S-9, AROCLOR 1254, Method: STANDARD PLATE.
Setting [8] is: Test System: AMES SALMONELLA TYPHIMURIUM, Strain/Indicator: TA100, Metabolic Activation: RAT, LIVER, S-9, AROCLOR 1254, Method: STANDARD PLATE.

As for `C[Si]1(C)O[Si](C)(C)O[Si](C)(C)O[Si](C)(C)O[Si](C)(C)O1`, the mutagenic call reads like this: under setting [1], “inactive; negative”; (Test System: AMES SALMONELLA TYPHIMURIUM, Strain/Indicator: TA98, Metabolic Activation: RAT LIVER S-9, AROCLOR 1254, Method: STANDARD PLATE) “inactive; negative”; under setting [2], “inactive; negative”; (Test System: AMES SALMONELLA TYPHIMURIUM, Strain/Indicator: TA100, Metabolic Activation: RAT LIVER S-9, AROCLOR 1254, Method: STANDARD PLATE) “inactive; negative”; under setting [3], “inactive; negative”; (Test System: AMES SALMONELLA TYPHIMURIUM, Strain/Indicator: TA1535, Metabolic Activation: RAT LIVER S-9, AROCLOR 1254, Method: STANDARD PLATE) “inactive; negative”. Moreover, the mutagenic call reads like this: under setting [4], “inactive; negative”; (Test System: AMES SALMONELLA TYPHIMURIUM, Strain/Indicator: TA1537, Metabolic Activation: RAT LIVER S-9, AROCLOR 1254, Method: STANDARD PLATE) “inactive; negative”; under setting [5], “inactive; negative”; (Test System: AMES SALMONELLA TYPHIMURIUM, Strain/Indicator: TA1538, Metabolic Activation: RAT LIVER S-9, AROCLOR 1254, Method: STANDARD PLATE) “inactive; negative”; (Test System: E. COLI, Strain/Indicator: P3078 POLA, Metabolic Activation: NONE, Method: SPOT TEST) “inactive; negative”; (Test System: E. COLI, Strain/Indicator: P3078 POLA, Metabolic Activation: RAT LIVER S-9, AROCLOR 1254, Method: SPOT TEST) “inactive; negative”. Also, the mutagenic call runs as follows: (Test System: E. COLI, Strain/Indicator: W3110, Metabolic Activation: NONE, Method: SPOT TEST) “inactive; negative”; (Test System: E. COLI, Strain/Indicator: W3110, Metabolic Activation: RAT LIVER S-9, AROCLOR 1254, Method: SPOT TEST) “inactive; negative”; under setting [6], “inactive; negative”; (Test System: MOUSE LYMPHOMA, Strain/Indicator: L5178Y (TK+/TK-), Metabolic Activation: RAT, LIVER, S-9, Method: SUSPENSION/PLATE) “inactive; negative”.
For `O=Nn1cc(CC(O)C(=O)O)c2ccccc21` (stereo not drawn), the mutagenic call under setting [1] was “active; positive”.
Take `CC(=O)OCc1ccc2c(c1)OCO2`: the mutagenic call (Test System: AMES SALMONELLA TYPHIMURIUM, Strain/Indicator: TA98, Metabolic Activation: HAMSTER, LIVER, S-9, AROCLOR 1254 (10%), Method: PREINCUBATION) is “inactive; negative”; the mutagenic call (Test System: AMES SALMONELLA TYPHIMURIUM, Strain/Indicator: TA98, Metabolic Activation: NONE, Method: PREINCUBATION) was “inactive; negative”; the mutagenic call (Test System: AMES SALMONELLA TYPHIMURIUM, Strain/Indicator: TA98, Metabolic Activation: RAT, LIVER, S-9, AROCLOR 1254 (10%), Method: PREINCUBATION) was “inactive; negative”; the mutagenic call (Test System: AMES SALMONELLA TYPHIMURIUM, Strain/Indicator: TA100, Metabolic Activation: HAMSTER, LIVER, S-9, AROCLOR 1254 (10%), Method: PREINCUBATION) was “inactive; negative”; the mutagenic call (Test System: AMES SALMONELLA TYPHIMURIUM, Strain/Indicator: TA100, Metabolic Activation: NONE, Method: PREINCUBATION) is “inactive; negative”; the mutagenic call (Test System: AMES SALMONELLA TYPHIMURIUM, Strain/Indicator: TA100, Metabolic Activation: RAT, LIVER, S-9, AROCLOR 1254 (10%), Method: PREINCUBATION) is “inactive; negative”. Further, the mutagenic call was “inactive; negative” (Test System: AMES SALMONELLA TYPHIMURIUM, Strain/Indicator: TA1535, Metabolic Activation: HAMSTER, LIVER, S-9, AROCLOR 1254 (10%), Method: PREINCUBATION); “inactive; negative” (Test System: AMES SALMONELLA TYPHIMURIUM, Strain/Indicator: TA1535, Metabolic Activation: NONE, Method: PREINCUBATION); “inactive; negative” (Test System: AMES SALMONELLA TYPHIMURIUM, Strain/Indicator: TA1535, Metabolic Activation: RAT, LIVER, S-9, AROCLOR 1254 (10%), Method: PREINCUBATION); “inactive; negative” (Test System: AMES SALMONELLA TYPHIMURIUM, Strain/Indicator: TA1537, Metabolic Activation: HAMSTER, LIVER, S-9, AROCLOR 1254 (10%), Method: PREINCUBATION); “inactive; negative” (Test System: AMES SALMONELLA TYPHIMURIUM, Strain/Indicator: TA1537, Metabolic Activation: NONE, Method: PREINCUBATION); “inactive; negative” (Test System: AMES SALMONELLA TYPHIMURIUM, Strain/Indicator: TA1537, Metabolic Activation: RAT, LIVER, S-9, AROCLOR 1254 (10%), Method: PREINCUBATION).
Consider `CC(Cc1ccc(O)c(O)c1)C(C)Cc1ccc(O)c(O)c1` (stereo not drawn), for which the mutagenic call is “inactive; negative” (Test System: AMES SALMONELLA TYPHIMURIUM, Strain/Indicator: TA98, Metabolic Activation: HAMSTER, LIVER, S-9, AROCLOR 1254, Method: STANDARD PLATE); “inactive; negative” under setting [1]; “inactive; negative” under setting [7]; “inactive; negative” (Test System: AMES SALMONELLA TYPHIMURIUM, Strain/Indicator: TA100, Metabolic Activation: HAMSTER, LIVER, S-9, AROCLOR 1254, Method: STANDARD PLATE); “inactive; negative” under setting [2]; “inactive; negative” under setting [8]. For the same compound, the mutagenic call by setting is: (Test System: AMES SALMONELLA TYPHIMURIUM, Strain/Indicator: TA1535, Metabolic Activation: HAMSTER, LIVER, S-9, AROCLOR 1254, Method: STANDARD PLATE) “inactive; negative”; under setting [3], “inactive; negative”; (Test System: AMES SALMONELLA TYPHIMURIUM, Strain/Indicator: TA1535, Metabolic Activation: RAT, LIVER, S-9, AROCLOR 1254, Method: STANDARD PLATE) “inactive; negative”; (Test System: AMES SALMONELLA TYPHIMURIUM, Strain/Indicator: TA1537, Metabolic Activation: HAMSTER, LIVER, S-9, AROCLOR 1254, Method: STANDARD PLATE) “inactive; negative”; under setting [4], “inactive; negative”; (Test System: AMES SALMONELLA TYPHIMURIUM, Strain/Indicator: TA1537, Metabolic Activation: RAT, LIVER, S-9, AROCLOR 1254, Method: STANDARD PLATE) “inactive; negative”. For the same compound, the mutagenic call reads like this: (Test System: AMES SALMONELLA TYPHIMURIUM, Strain/Indicator: TA1538, Metabolic Activation: HAMSTER, LIVER, S-9, AROCLOR 1254, Method: STANDARD PLATE) “inactive; negative”; under setting [5], “inactive; negative”; (Test System: AMES SALMONELLA TYPHIMURIUM, Strain/Indicator: TA1538, Metabolic Activation: RAT, LIVER, S-9, AROCLOR 1254, Method: STANDARD PLATE) “inactive; negative”; under setting [6], “active; positive. reevaluation of results: positive”; (Test System: MOUSE LYMPHOMA, Strain/Indicator: L5178Y (TK+/TK-), Metabolic Activation: RAT, LIVER, S-9, AROCLOR 1254, Method: SUSPENSION/PLATE) “inactive; negative. reevaluation of results: negative”.
As to `O=[N+]([O-])c1ccc2ccc3cc4c(c5ccc1c2c35)CCC=C4`, the mutagenic call runs as follows: (Test System: AMES SALMONELLA TYPHIMURIUM, Strain/Indicator: TA98 (1,8-DNP6), Metabolic Activation: RAT, LIVER, S-9, AROCLOR 1254, Method: STANDARD PLATE) “active; positive”; (Test System: AMES SALMONELLA TYPHIMURIUM, Strain/Indicator: TA98(NR), Metabolic Activation: RAT, LIVER, S-9, AROCLOR 1254, Method: STANDARD PLATE) “active; positive”; under setting [1], “active; positive”; under setting [7], “active; positive”; under setting [2], “active; positive”; under setting [8], “active; positive”.
On to `Nc1cccc2ncc(F)cc12`, for which the mutagenic call (Test System: AMES SALMONELLA TYPHIMURIUM, Strain/Indicator: TA100, Metabolic Activation: RAT, LIVER, S-9, PHENOBARBITAL AND 5,6-BENZOFLAVONE, Method: PREINCUBATION) is “active; positive”.
